This is an account of results in article PMC6147235 (iScience, 2018).

The experiment concerns WT OPS, G51A, T17M, P171Q, P180A. Kind of experiment: Subcellular localization. The class given is cell-based, human. As to conditions: 10 µM all-trans retinal, P180A in COS-7 cells.

`CC1=C(/C=C/C(C)=C/C=C/C(C)=C/C=O)C(C)(C)CCC1` [all-trans retinal]: the “effect on subcellular localization (PCC and RetP1/1D4)” value was “no effect”.
